These results are taken from ChEMBL document CHEMBL6134853, “Design, Synthesis, and Biological Evaluation of Pyrrolo[1,2-a]quinoxalin-4(5H)-one Derivatives as Potent and Orally Available Noncovalent Bruton's Tyrosine Kinase (BTK) Inhibitors” (J Med Chem, 2025).

≈ marks a conversion by molar mass, not a printed value.

For data set [1], the system named is U-937. Put plainly: Antiproliferative activity against human U-937 cells expressing BTK assessed as inhibition of cell proliferation incubated for 48 hrs by CCK-8 assay. The data set is classed as functional, cell-based. To be noted: U-937, 48 h.
The nature of data set [2]: Cmax in male Sprague-Dawley rat at 10 mg/kg, po measured up to 5 hrs by LC-MS/MS analysis. The format is ADME, organism-based. The conditions noted are these: in vivo.
Data set [3] is described as follows: AUC (0 to 5 hrs) in male Sprague-Dawley rat at 10 mg/kg, po measured up to 5 hrs by LC-MS/MS analysis. The data set is classed as ADME, organism-based. To be noted: in vivo.
A short description of data set [4]: MRT (0 to 5 hrs) in male Sprague-Dawley rat at 10 mg/kg, po measured up to 5 hrs by LC-MS/MS analysis. The format is ADME, organism-based. To be noted: in vivo.
The test system of a further data set is Ramos. The experiment in a line: Antiproliferative activity against human Ramos cells expressing BTK assessed as inhibition of cell proliferation incubated for 48 hrs by CCK-8 assay. The data set is classed as functional, cell-based.
A short description of data set [5]: Tmax in male Sprague-Dawley rat at 10 mg/kg, po measured up to 5 hrs by LC-MS/MS analysis. The format is ADME, organism-based. To be noted: in vivo.
Data set [6] deals with Tyrosine-protein kinase BTK (Homo sapiens, UniProt Q06187). Put plainly: Inhibition of BTK (unknown origin) by HTRF analysis.
Tyrosine-protein kinase BTK, sequence (Q06187 whole entry): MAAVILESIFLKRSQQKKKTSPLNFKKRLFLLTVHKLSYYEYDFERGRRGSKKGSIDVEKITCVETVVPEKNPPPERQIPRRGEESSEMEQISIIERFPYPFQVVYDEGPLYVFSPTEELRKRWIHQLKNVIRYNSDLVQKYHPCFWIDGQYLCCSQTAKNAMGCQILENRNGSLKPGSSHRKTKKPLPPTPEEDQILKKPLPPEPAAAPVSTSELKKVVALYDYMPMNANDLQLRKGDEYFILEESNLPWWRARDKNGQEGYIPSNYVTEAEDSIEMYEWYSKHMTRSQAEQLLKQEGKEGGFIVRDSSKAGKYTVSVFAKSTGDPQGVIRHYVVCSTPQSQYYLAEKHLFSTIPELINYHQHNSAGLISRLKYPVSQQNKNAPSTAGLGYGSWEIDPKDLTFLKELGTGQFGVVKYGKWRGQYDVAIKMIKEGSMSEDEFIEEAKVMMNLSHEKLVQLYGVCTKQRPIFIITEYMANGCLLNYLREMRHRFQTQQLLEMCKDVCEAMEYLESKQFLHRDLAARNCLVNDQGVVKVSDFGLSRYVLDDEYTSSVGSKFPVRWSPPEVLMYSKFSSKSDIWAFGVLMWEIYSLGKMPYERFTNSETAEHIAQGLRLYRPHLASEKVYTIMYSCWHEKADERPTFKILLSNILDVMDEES
A short description of data set [7]: Aqueous solubility of compound in PBS buffer at pH 7.4 by HPLC analysis. The format is physicochemical.
Data set [8] relates to U-937. Put plainly: Antitumor activity against human U-937 cells xenografted in BALB/c mouse assessed as tumor growth inhibition at 50 mg/kg, po administered once a day for 14 days. The format is functional. To be noted: U-937, 336 h, time 14 day, read-out: TGI.
Data set [9] in a line: Metabolic stability in rat liver microsome measured for 60 mins by UHPL-UV-HRMS analysis. The data set is classed as ADME. The conditions noted are these: microsomes, 1 h.
Data set [10] can be described thus: AUC (0 to t) in male Sprague-Dawley rat at 10 mg/kg, po measured up to 24 hrs by LC-MS/MS analysis. The format is ADME, organism-based. To be noted: in vivo.

Turning to `[2H]C([2H])([2H])C(O)(c1ccc2c(c1)[nH]c(=O)c1ccc(-c3cccc(-n4c(=O)[nH]c5c(F)cccc5c4=O)c3C)n12)C([2H])([2H])[2H]`, the half-inhibitory concentration (IC50) in the data set with U-937 [1] worked out at 13.3 µM; in the data set on Ramos it was 19 µM; in data set [6] it was 12.4 nM. In addition, in data set [2], the peak level (Cmax) was 10.4 ng/mL. Besides, the AUC(0-t) at 5 h in [3] was determined as 31.1 ng·h/mL. In data set [4], the MRT last at 5 h amounted to 2.05 h. Further, in [5], the Tmax worked out at 0.5 h.

In the case of `Cc1c(-c2ccc3c(=O)[nH]c4cc(C(C)(C)O)ccc4n23)cccc1-n1c(=O)[nH]c2c(F)cccc2c1=O`, the IC50 in the data set on U-937 [1] was found to be 11.6 µM; with Ramos, 19.9 µM; in data set [6] it was 8.3 nM. In addition, the concentration in data set [2] peaked (Cmax) at 14.2 ng/mL. In data set [3], this compound came in with an AUC(0-t) at 5 h of 39.7 ng·h/mL. In addition, the MRT last at 5 h in [4] was found to be 1.02 h. In addition, the solubility in data set [7] is 1.1 µg/mL (≈ 2.15 µM). For the same compound, in the data set on U-937 [8], the inhibition in vivo at 50 mg/kg stood at 28.7%. The Stability result in [9] is listed as “Stable”. In data set [5], the Tmax is 1 h. In data set [10], this compound came in with an AUC(0-t) at 24 h of 51.9 ng·h/mL.

In the case of `Cc1c(-c2ccc3c(=O)[nH]c4cc(C(C)(C)O)ccc4n23)cc(F)cc1-n1c(=O)[nH]c2c(F)cccc2c1=O`, the IC50 in the data set on U-937 [1] is 12 µM; in the data set with Ramos, 23.7 µM; in data set [6] it was 17.3 nM.

`Cc1c(-c2ccc3c(=O)[nH]c4cc(C(C)(C)O)ccc4n23)cccc1-n1c(=O)[nH]c2c(F)cc(F)cc2c1=O`: the values for the IC50 (in the data set with U-937 [1]; in the data set with Ramos; in [6]) were more than 40 µM, 35.6 µM and 7.2 nM, respectively.

With `Cc1c(-c2ccc3c(=O)[nH]c4cc(CN5CCOCC5)ccc4n23)cccc1-n1c(=O)[nH]c2c(F)cccc2c1=O`, the midpoint of inhibition in data set [6], the IC50, lay at 33.4 nM.

For the compound `Cc1c(-c2c(F)cc(C(N)=O)c3[nH]c4c(c23)CC[C@H](C(C)(C)O)C4)cccc1-n1c(=O)c2cccc(F)c2n(C)c1=O` [BMS-986142], the IC50 is 9.3 µM in the data set on U-937 [1], 13.6 µM in the data set on Ramos and 0.42 nM in data set [6].

Take `Cc1c(-c2ccc3c(=O)[nH]c4cc(C(F)F)ccc4n23)cccc1-n1c(=O)[nH]c2c(F)cccc2c1=O`: the half-maximal inhibitory concentration (IC50) in [6] came out at 53.6 nM.

In the case of `Cc1c(-c2ccc3c(=O)[nH]c4cc(C(C)(C)O)ccc4n23)cccc1-n1c(=O)[nH]c2cccc(F)c2c1=O`, the IC50 in the data set on U-937 [1] was found to be 6.2 µM; in the data set with Ramos, 17.9 µM; in data set [6], 12.1 nM.

As to `CC(C)(O)c1ccc2c(c1)[nH]c(=O)c1ccc(-c3cccc(-n4c(=O)[nH]c5c(F)cccc5c4=O)c3)n12`, the IC50 in [6] worked out at 73.7 nM.

On to `Cc1c(-c2ccc3c(=O)[nH]c4cc(C(C)(C)O)ccc4n23)cccc1N1CC(=O)Nc2c(F)cccc2C1=O`, for which the solubility in data set [7] was determined as 6.3 µg/mL (≈ 12 µM). This compound also yielded an IC50 in data set [6] of 36.8 nM.

`Cc1c(-c2c(F)cc3c(=O)[nH]c4cc(C(C)(C)O)ccc4n23)cccc1-n1c(=O)[nH]c2c(F)cccc2c1=O`: the figures for the IC50 (with U-937 [1]; in the data set on Ramos; in [6]) were more than 40 µM, more than 40 µM and 5.8 nM, respectively.

For the compound `Cc1c(-c2ccc3n2Cc2ccc(C(C)(C)O)cc2NC3=O)cccc1-n1c(=O)[nH]c2c(F)cccc2c1=O`, the solubility in [7] was less than 0.5 µg/mL. Further, in [6], the IC50 was more than 1000 nM.

`Cc1c(NC(=O)c2cccc(F)c2N)cccc1-c1ccc2c(=O)[nH]c3cc(C(C)(C)O)ccc3n12`: inhibition in [6] was half-maximal at 49.2 nM (IC50).

The compound `Cc1c(-c2ccc3c(=O)[nH]c4cc(C(C)(C)O)ccc4n23)cccc1-n1c(=O)oc2c(F)cccc2c1=O` returned a half-inhibitory concentration (IC50) in [6] of 54.2 nM.

In data set [6], `Cc1c(-c2c(C#N)cc3c(=O)[nH]c4cc(C(C)(C)O)ccc4n23)cccc1-n1c(=O)[nH]c2c(F)cccc2c1=O` gave an IC50 of more than 1000 nM.

On to `C=CC(=O)N1CCC[C@@H](n2nc(-c3ccc(Oc4ccccc4)cc3)c3c(N)ncnc32)C1` [IBRUTINIB], for which the IC50 is 3.7 µM in the data set with U-937 [1] and 15.1 µM in the data set with Ramos. For the same compound, the inhibition in vivo at 50 mg/kg in the data set on U-937 [8] came out at 41.1%.

As for `Cc1c(-c2ccc3c(=O)[nH]c4cc(C(C)(C)O)ccc4n23)cccc1-n1c(=O)[nH]c2cc(C3CC3)ccc2c1=O`, the IC50 in the data set on U-937 [1] was 13.8 µM; in the data set with Ramos, 8.7 µM; in data set [6] it was 16.8 nM.

Consider `CC(C)(O)c1ccc2c(c1)[nH]c(=O)c1ccc(-c3cccc(-n4c(=O)[nH]c5c(F)cccc5c4=O)c3C(F)F)n12`, for which the IC50 was 12.5 µM with U-937 [1], more than 40 µM with Ramos and 10.7 nM in data set [6].

As to `Cc1c(-c2ccc(C(N)=O)n2-c2ccc(C(C)(C)O)cc2)cccc1-n1c(=O)[nH]c2c(F)cccc2c1=O`, in data set [7], the solubility was found to be 30.6 µg/mL (≈ 59.7 µM). In [6], this compound gave an IC50 of more than 1000 nM.

Regarding `Cc1c(-c2ccc3c(=O)[nH]c4cc(C(C)(C)O)ccc4n23)cccc1N1C(=O)c2cccc(F)c2C1=O`, the half-inhibitory concentration (IC50) was more than 40 µM in the data set on U-937 [1], more than 40 µM in the data set with Ramos and 22.1 nM in data set [6].

Regarding `Cc1c(-c2ccc3c(=O)[nH]c(-c4ccc(C(C)(C)O)cc4)cn23)cccc1-n1c(=O)[nH]c2c(F)cccc2c1=O`, the solubility in [7] is less than 0.5 µg/mL. Also, in data set [6], 64.8 nM corresponded to half-maximal inhibition (IC50).

For the compound `CC(C)(O)c1ccc2c(c1)[nH]c(=O)c1ccc(-c3cccc(-n4c(=O)[nH]c5c(F)cccc5c4=O)c3CO)n12`, the IC50 in the data set with U-937 [1] was more than 40 µM; with Ramos, more than 40 µM; in data set [6], 15 nM. The compound further showed a solubility in [7] of 8.4 µg/mL (≈ 16 µM).

As for `Cc1c(-c2ccc3c(=O)[nH]c4cc(C(C)(C)O)ccc4n23)cccc1N1CNc2c(F)cccc2C1=O`, the values for the IC50 (in the data set with U-937 [1]; in the data set on Ramos; in [6]) were 15.9 µM, 16.8 µM and 18.1 nM, respectively.

Consider `Cc1cc2c(=O)[nH]c3cc(C(C)(C)O)ccc3n2c1-c1cccc(-n2c(=O)[nH]c3c(F)cccc3c2=O)c1C`, for which the IC50 in the data set on U-937 [1] was found to be 6 µM; with Ramos, 15 µM; in data set [6], 11 nM. Moreover, in data set [2], the Cmax was 5.16 ng/mL. The same compound registered an AUC(0-t) at 5 h in data set [3] of 8.45 ng·h/mL. The compound also yielded an MRT last at 5 h in data set [4] of 1.17 h. Further, the Tmax in data set [5] came to 1 h.

Regarding `Cc1c(-c2cc(CO)c3c(=O)[nH]c4cc(C(C)(C)O)ccc4n23)cccc1-n1c(=O)[nH]c2c(F)cccc2c1=O`, the solubility in data set [7] was 5.5 µg/mL (≈ 10.2 µM). 327 nM corresponded to half-maximal inhibition in data set [6] (IC50).

In data set [6], `Cc1c(-c2ccc3c(=O)[nH]c4cc(C(F)(F)F)ccc4n23)cccc1-n1c(=O)[nH]c2c(F)cccc2c1=O` registered an IC50 of 60.7 nM.
